From BindingDB's records for doi:10.1016/S0960-894X(97)00421-6 (1997)
pEC50: −log10 of the molar value.

Molecular target: Growth hormone secretagogue receptor type 1 (Rattus norvegicus) (UniProt O08725)
Test: Ability to release growth hormone in a rat pituitary cell assay

Sequence of Growth hormone secretagogue receptor type 1 (Rattus norvegicus) (O08725 whole entry, looked up): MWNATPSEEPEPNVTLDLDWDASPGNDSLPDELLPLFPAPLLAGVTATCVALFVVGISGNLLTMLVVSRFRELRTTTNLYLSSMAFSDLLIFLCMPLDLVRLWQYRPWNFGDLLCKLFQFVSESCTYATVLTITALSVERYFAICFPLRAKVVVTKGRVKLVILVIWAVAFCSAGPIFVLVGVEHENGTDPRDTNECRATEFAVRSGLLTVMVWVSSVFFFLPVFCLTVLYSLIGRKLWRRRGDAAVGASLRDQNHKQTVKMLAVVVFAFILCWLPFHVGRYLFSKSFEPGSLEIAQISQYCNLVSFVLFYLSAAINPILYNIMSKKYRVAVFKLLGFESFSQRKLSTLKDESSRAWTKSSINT

CC(C)(N)C(=O)N[C@H](CCCc1ccccc1)C(=O)N1CCC2(CC1)C[C@H](CC(=O)O)c1ccccc12 and CC(C)(N)C(=O)N[C@H](CCCc1ccccc1)C(=O)N1CCC2(CC1)C[C@@H](CC(=O)O)c1ccccc12 are within 0.2 log units of each other in pEC50: 8.64 for the first, 8.72 for the second.

Compared with CCOC(=O)[C@@H]1CC2(CCN(C(=O)[C@@H](COCc3ccccc3)NC(=O)C(C)(C)N)CC2)c2ccccc21, CCOC(=O)[C@H]1CC2(CCN(C(=O)[C@@H](COCc3ccccc3)NC(=O)C(C)(C)N)CC2)c2ccccc21 is 0.36 log units higher in pEC50: 8.18 for the first, 8.54 for the second.

Compared with CCOC(=O)CCC1CC2(CCN(C(=O)[C@@H](CCCc3ccccc3)NC(=O)C(C)(C)N)CC2)c2ccccc21 (stereo partly drawn), CCOC(=O)C[C@@H]1CC2(CCN(C(=O)[C@@H](CCCc3ccccc3)NC(=O)C(C)(C)N)CC2)c2ccccc21 is 0.21 log units higher in pEC50: 8.89 for the first, 9.10 for the second.

CC(C)(N)C(=O)N[C@H](CCCc1ccccc1)C(=O)N1CCC2(CC1)C[C@H](C(=O)O)c1ccccc12 and CC(C)(N)C(=O)N[C@H](CCCc1ccccc1)C(=O)N1CCC2(CC1)C[C@@H](C(=O)O)c1ccccc12 are within 0.2 log units of each other in pEC50: 8.68 for the first, 8.60 for the second.

Going from CC(C)(N)C(=O)N[C@@H](CCCc1ccccc1)C(=O)N1CCC2(CCc3ccccc32)CC1 to CC(C)(N)C(=O)N[C@H](COCc1ccccc1)C(=O)N1CCC2(CCc3ccccc32)CC1, the pEC50 falls from 8.00 to 7.77 (0.23 log units).

First: CCOC(=O)[C@@H]1CC2(CCN(C(=O)[C@@H](CCCc3ccccc3)NC(=O)C(C)(C)N)CC2)c2ccccc21
Second: CCOC(=O)[C@H]1CC2(CCN(C(=O)[C@@H](CCCc3ccccc3)NC(=O)C(C)(C)N)CC2)c2ccccc21
The pEC50 of the first is 0.30 log units lower: 8.70 for the first, 9.00 for the second. The second is the more potent here.

Compared with CC(C)(N)C(=O)N[C@H](CCCc1ccccc1)C(=O)N1CCC2(CC1)CC(CCC(=O)O)c1ccccc12 (stereo partly drawn), CCOC(=O)C[C@H]1CC2(CCN(C(=O)[C@@H](CCCc3ccccc3)NC(=O)C(C)(C)N)CC2)c2ccccc21 is 0.40 log units higher in pEC50: 8.60 for the first, 9.00 for the second.

First: CC(C)(N)C(=O)N[C@H](Cc1c[nH]c2ccccc12)C(=O)N1CCC2(CC1)C[C@@H](CC(=O)O)c1ccccc12
Second: CCOC(=O)C[C@H]1CC2(CCN(C(=O)[C@@H](Cc3c[nH]c4ccccc34)NC(=O)C(C)(C)N)CC2)c2ccccc21
The pEC50 of the first is 0.69 log units higher: 8.24 for the first, 7.55 for the second.

CCOC(=O)C[C@@H]1CC2(CCN(C(=O)[C@@H](Cc3c[nH]c4ccccc34)NC(=O)C(C)(C)N)CC2)c2ccccc21 and CCOC(=O)[C@H]1CC2(CCN(C(=O)[C@@H](Cc3c[nH]c4ccccc34)NC(=O)C(C)(C)N)CC2)c2ccccc21 are within 0.2 log units of each other in pEC50: 8.15 for the first, 8.22 for the second.

Going from CC(C)(N)C(=O)N[C@H](COCc1ccccc1)C(=O)N1CCC2(CC1)C[C@H](C(=O)O)c1ccccc12 to CCOC(=O)[C@@H]1CC2(CCN(C(=O)[C@@H](Cc3c[nH]c4ccccc34)NC(=O)C(C)(C)N)CC2)c2ccccc21, the pEC50 falls from 8.36 to 8.08 (0.28 log units).

First: CC(C)(N)CC(=O)N[C@@H]1CCc2ccccc2N(Cc2ccc(-c3ccccc3-c3nnn[nH]3)cc2)C1=O [3-Amino-3-methyl-N-{2-oxo-1-[2'-(1H-tetrazol-5-yl)-biphenyl-4-ylmethyl]-2,3,4,5-tetrahydro-1H-benzo[b]azepin-3-yl}-butyramide]
Second: C[C@@H](O)CNC(C)(C)CC(=O)N[C@@H]1CCc2ccccc2N(Cc2ccc(-c3ccccc3-c3nnn[nH]3)cc2)C1=O [L-692585]
The pEC50 of the first is 1.30 log units lower: 7.22 for the first, 8.52 for the second.

CC(C)(N)C(=O)N[C@H](Cc1c[nH]c2ccccc12)C(=O)N1CCC2(CCc3ccccc32)CC1 [L-162752] showed a pEC50 of 7.85.
